{"source": "patent US8470594B2", "about": "“Methods for identifying agents that affect the survival of motor neurons” (President and Fellows of Harvard College, priority 2008, dated 2013)", "data": [{"test_system": "Hb9::GFP human ES cell-derived motor neurons", "experiment": "Survival of Hb9::GFP human ES cell-derived motor neurons in co-culture with non-transgenic (WT) glia", "type": "cell-based", "settings": "non-transgenic (WT) mouse glia pretreated 1 day, 20 days of treatment; MCP2, Cxc17, Rantes 100 ng/ml; GMFb 250 ng/ml; PGD2 10 μM; Shh agonist 11M [sic]; n=3", "description": "(§1) Differentiation of human Embryonic Stem Cells into motor neurons. For differentiation into motor neurons, the cells were allowed to reach 80-90% confluency, washed once with PBS, and then incubated for 15 minutes at 37° C. in a solution of 1 g/L Collagenase IV (GIBCO) in DMEM-F12 (GIBCO).\nAfter 24 hours, the cells had aggregated to form embryoid bodies (EBs), and the media was changed to remove debris by centrifuging the EBs and resuspending in fresh in human ES cell media without bFGF2 or plasmanate in low attachment 6-well plates. EBs were cultured as such for 13 more days, with half of the media changed every two days, and a complete media change every week. After 14 days, the EBs were induced toward a caudal and ventral identity using retinoic acid (1 μM, Sigma) and an agonist of the Shh signaling pathway (1 μM) in N2 media: 1:1 DMEM:F-12+Glutamate (Gibco), 10,000 units Penicillin and 1 mg/mL Streptomicin (Gibco), 1% N2 Supplement (Gibco), 0.2 mM ascorbic acid (Sigma-Aldrich), 0.16% D-(+)-Glucose (Sigma-Aldrich), BDNF (10 ng/ml, R&D Systems), for another 14 days. The EBs were then matured for a final 14 days in N2 media with GNDF (10 ng/mL, R&D Systems). After 42 days of differentiation, the EBs were dissociated. To dissociate the EBs, they were centrifuged at 1000 rpm for 5 min in a 15 ml falcon tube, and then washed once with PBS to eliminate residual media. The EBs were then incubated for 60 minutes at 37° C. in Earle's Balanced Salt Solution with 20 units of papain and 1000 units of Deoxyribonuclease I (Worthington Biochemical Corporation). EBs were triturated using a 2 mL serological pipette every 15-20 minutes during this incubation. When an almost single cell suspension was achieved, the cells were centrifuged for 5 minutes at 1000 RPM. The resulting cell pellet was washed once with PBS and then resuspended in N2 media with neurotrophic factors (GDNF, and BDNF (10 ng/ml, R&D Systems)). These cells were then counted and plated on Poly-D-Lysine/Laminin CultureSlides (BD biosciences) or on a layer of primary glial cells. Depending on the experiment, motor neurons or interneurons were counted 10 or 20 days after plating.\nPrimary Glial Cultures. P1-P3 mouse pups transgenic for SOD1G93A, SOD1WT or non-transgenic pups were sacrificed by using an approved method of euthanasia. Under a dissection microscope, the parenquima were isolated and the meninges were carefully stripped away with fine forceps. The tissue was then dissected into small pieces and transferred to a solution containing 12 ml of HBSS, 1.5 ml of trypsin (GIBCO) and 1% DNAse (Sigma) and incubated at 37° C. for 15 min, swirling the mixture periodically. The supernatant containing the dissociated cells was then collected and 3 ml of serum was added to inhibit trypsin activity.\nThe cells were then centrifuged at 1000 rpm for 5 min, resuspended in Glia medium: (Minimun Essential Medium with Earl's salts (GIBCO), D-(+)-Glucose 20% (Sigma), Penicillin-streptomycin (GIBCO), 10% Horse Serum (GIBCO)) and plated at the concentration of 80,000 cells per mL in T75 flasks (Falcon). After the glia reached confluency, they were replated onto Poly-D-Lysine/Laminin CultureSlides (BD biosciences).\nNon-transgenic glia were individually pretreated for 1 day with either one of the three cytokines MCP2, Cxc17, or Rantes; with GMFb; an agonist of SHH pathway; or with PGD2.", "values": [{"molecule": "CNC1CCC(N(Cc2cccc(-c3ccncc3)c2)C(=O)c2sc3ccccc3c2Cl)CC1", "note": "(stereo not drawn) [SHH agonist]", "number of GFP positive motor neurons compared to the control condition": "97%+/−12%"}, {"molecule": "CCCCC[C@H](O)/C=C/[C@H]1C(=O)C[C@H](O)[C@@H]1C/C=C\\CCCC(=O)O", "note": "[PGD2, prostaglandin D2]", "number of GFP positive motor neurons compared to the control condition": "19%+/−2%"}, {"molecule": "Rantes", "number of GFP positive motor neurons compared to the control condition": "108%+/−20%"}, {"molecule": "Mcp2: cytokine over expressed in mutant glia; from Peprotech (protein, UniProt Q9Z121 24-97, looked up) C-C motif chemokine 8: GPDKAPVTCCFHVLKLKIPLRVLKSYERINNIQCPMEAVVFQTKQGMSLCVDPTQKWVSEYMEILDQKSQILQP", "number of GFP positive motor neurons compared to the control condition": "103%+/−8%"}, {"molecule": "GMFb: glial maturation factor beta, shown to induce a pro-inflammatory state in astrocytes; from Peprotech (protein, UniProt Q9CQI3 2-142, looked up) Glia maturation factor beta: SESLVVCDVAEDLVEKLRKFRFRKETHNAAIIMKIDKDERLVVLDEELEGVSPDELKDELPERQPRFIVYSYKYQHDDGRVSYPLCFIFSSPVGCKPEQQMMYAGSKNKLVQTAELTKVFEIRNTEDLTEEWLREKLGFFH", "number of GFP positive motor neurons compared to the control condition": "95%+/−9%"}]}, {"test_system": "Hb9::GFP human ES cell-derived motor neurons", "experiment": "not given", "settings": "SOD1G93A glia pretreated 1 day, MK 0524 10 μM, 20 days; p<0.05; n=3", "description": "as §1\nAfter 24 hours, the cells had aggregated to form embryoid bodies (EBs), and the media was changed to remove debris by centrifuging the EBs and resuspending in fresh in human ES cell media without bFGF2 or plasmanate in low attachment 6-well plates. EBs were cultured as such for 13 more days, with half of the media changed every two days, and a complete media change every week. After 14 days, the EBs were induced toward a caudal and ventral identity using retinoic acid (1 μM, Sigma) and an agonist of the Shh signaling pathway (1 μM) in N2 media: 1:1 DMEM:F-12+Glutamate (Gibco), 10,000 units Penicillin and 1 mg/mL Streptomicin (Gibco), 1% N2 Supplement (Gibco), 0.2 mM ascorbic acid (Sigma-Aldrich), 0.16% D-(+)-Glucose (Sigma-Aldrich), BDNF (10 ng/ml, R&D Systems), for another 14 days. […] These cells were then counted and plated on Poly-D-Lysine/Laminin CultureSlides (BD biosciences) or on a layer of primary glial cells. Depending on the experiment, motor neurons or interneurons were counted 10 or 20 days after plating. […]", "units": {"increase in the number of GFP positive neurons relative to untreated neurons plated on the same glia": "%"}, "values": [{"molecule": "CS(=O)(=O)c1cc(F)cc2c3c(n(Cc4ccc(Cl)cc4)c12)[C@@H](CC(=O)O)CC3", "note": "[MK 0524]", "increase in the number of GFP positive neurons relative to untreated neurons plated on the same glia": 32}]}]}
